PubChem BioAssay AID256 (DTP/NCI, 2004)
Inconclusive results and toxic doses are left out.

Test system: CD2F1 mice, L1210 leukemia ip, survival T/C
Test: NCI In Vivo Anticancer Drug Screen. Data for tumor model L1210 Leukemia (intraperitoneal) in CD2F1 (CDF1) mice
Conditions: higher = longer survival
In short: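 Each value reflects a quotient of treated over vehicle control outcomes in mice with a transplanted tumor.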

[1] = endpoint: mean survival time, dose: 25.0 mg/kg/injection, schedule: Q04DX003 (ip), vehicle: saline
[2] = endpoint: mean survival time, dose: 100.0 mg/kg/injection, schedule: Q01DX001 (ip), vehicle: saline with Tween-80
[3] = endpoint: mean survival time, dose: 200.0 mg/kg/injection, schedule: Q01DX001 (ip), vehicle: saline with Tween-80

## CC(C)(C)C1=C(N=[N+]=[N-])C(=O)C(C(C)(C)C)=C(N=[N+]=[N-])C1=O
endpoint: mean survival time, dose: 100.0 mg/kg/injection, schedule: Q01DX001 (ip), vehicle: other
  T/C: 104 % of control
endpoint: mean survival time, dose: 200.0 mg/kg/injection, schedule: Q01DX001 (ip), vehicle: other
  T/C: 104 % of control
endpoint: mean survival time, dose: 400.0 mg/kg/injection, schedule: Q01DX001 (ip), vehicle: other
  T/C: 101 % of control

## COc1c(O)cc2c(c1OC)-c1ccc(SC)c(=O)cc1C(NC(C)=O)CC2 (stereo not given)
endpoint: median survival time, dose: 0.06 mg/kg/injection, schedule: Q01DX009 (ip), vehicle: Klucel (hydroxypropylcellulose) (HPC)
  T/C: 110 % of control
endpoint: median survival time, dose: 0.12 mg/kg/injection, schedule: Q01DX009 (ip), vehicle: Klucel (hydroxypropylcellulose) (HPC)
  T/C: 110 % of control
endpoint: median survival time, dose: 0.25 mg/kg/injection, schedule: Q01DX009 (ip), vehicle: Klucel (hydroxypropylcellulose) (HPC)
  T/C: 110 % of control
endpoint: median survival time, dose: 0.31 mg/kg/injection, schedule: Q01DX009 (ip), vehicle: DMSO
  T/C: 113 % of control
endpoint: median survival time, dose: 0.31 mg/kg/injection, schedule: Q01DX009 (ip), vehicle: Klucel (hydroxypropylcellulose) (HPC)
  T/C: 118 % of control
endpoint: median survival time, dose: 0.5 mg/kg/injection, schedule: Q01DX009 (ip), vehicle: Klucel (hydroxypropylcellulose) (HPC)
  T/C: 121 % of control
endpoint: median survival time, dose: 0.63 mg/kg/injection, schedule: Q01DX009 (ip), vehicle: DMSO
  T/C: 124 % of control
endpoint: median survival time, dose: 1.0 mg/kg/injection, schedule: Q01DX009 (ip), vehicle: Klucel (hydroxypropylcellulose) (HPC)
  T/C: 105 % of control
endpoint: median survival time, dose: 2.5 mg/kg/injection, schedule: Q01DX009 (oral), vehicle: DMSO
  T/C: 108 % of control
endpoint: median survival time, dose: 5.0 mg/kg/injection, schedule: Q01DX005 (ip), vehicle: Klucel (hydroxypropylcellulose) (HPC)
  T/C: 164 % of control
endpoint: median survival time, dose: 5.0 mg/kg/injection, schedule: Q01DX009 (ip), vehicle: DMSO
  T/C: 172 % of control
endpoint: median survival time, dose: 5.0 mg/kg/injection, schedule: Q01DX009 (oral), vehicle: DMSO
  T/C: 107 % of control
endpoint: median survival time, dose: 10.0 mg/kg/injection, schedule: Q01DX009 (ip), vehicle: DMSO
  T/C: 165 % of control
endpoint: median survival time, dose: 10.0 mg/kg/injection, schedule: Q01DX009 (oral), vehicle: DMSO
  T/C: 116 % of control
endpoint: median survival time, dose: 20.0 mg/kg/injection, schedule: Q01DX005 (ip), vehicle: Klucel (hydroxypropylcellulose) (HPC)
  T/C: 158 % of control
endpoint: median survival time, dose: 20.0 mg/kg/injection, schedule: Q01DX009 (oral), vehicle: DMSO
  T/C: 109 % of control
endpoint: median survival time, dose: 40.0 mg/kg/injection, schedule: Q01DX009 (oral), vehicle: DMSO
  T/C: 107 % of control

## CCC(C)(C)N
endpoint: mean survival time, dose: 100.0 mg/kg/injection, schedule: Q04DX003 (ip), vehicle: saline
  T/C: 100 % of control
endpoint: mean survival time, dose: 200.0 mg/kg/injection, schedule: Q04DX003 (ip), vehicle: saline
  T/C: 106 % of control
endpoint: mean survival time, dose: 400.0 mg/kg/injection, schedule: Q04DX003 (ip), vehicle: saline
  T/C: 103 % of control

## CCOC(=O)Nc1cccc(Cl)c1F
endpoint: mean survival time, dose: 100.0 mg/kg/injection, schedule: Q01DX009 (ip), vehicle: saline with Tween-80
  T/C: 91 % of control
endpoint: mean survival time, dose: 200.0 mg/kg/injection, schedule: Q01DX009 (ip), vehicle: saline with Tween-80
  T/C: 97 % of control
endpoint: mean survival time, dose: 400.0 mg/kg/injection, schedule: Q01DX009 (ip), vehicle: saline with Tween-80
  T/C: 96 % of control

## O=[Te]=O
endpoint: median survival time, dose: 3.12 mg/kg/injection, schedule: Q01DX009 (ip), vehicle: saline
  T/C: 100 % of control
endpoint: median survival time, dose: 6.25 mg/kg/injection, schedule: Q01DX009 (ip), vehicle: saline
  T/C: 98 % of control
endpoint: median survival time, dose: 10.0 mg/kg/injection, schedule: Q01DX009 (ip), vehicle: saline
  T/C: 101 % of control
endpoint: median survival time, dose: 12.5 mg/kg/injection, schedule: Q01DX009 (ip), vehicle: saline
  T/C: 100 % of control
endpoint: median survival time, dose: 20.0 mg/kg/injection, schedule: Q01DX009 (ip), vehicle: saline
  T/C: 97 % of control

## Nc1ccc(C(=O)CCCN2CCCCC2)cc1
endpoint: mean survival time, dose: 12.5 mg/kg/injection, schedule: Q04DX003 (ip), vehicle: saline
  T/C: 107 % of control
[1]
  T/C: 95 % of control
endpoint: mean survival time, dose: 50.0 mg/kg/injection, schedule: Q04DX003 (ip), vehicle: saline
  T/C: 107 % of control

## CC12C(=O)OC(=O)C1(C)C1CCC2O1 (stereo not given)
endpoint: mean survival time, dose: 0.39 mg/kg/injection, schedule: Q01DX009 (ip), vehicle: saline with Tween-80
  T/C: 94 % of control
endpoint: mean survival time, dose: 0.78 mg/kg/injection, schedule: Q01DX009 (ip), vehicle: saline with Tween-80
  T/C: 98 % of control
endpoint: mean survival time, dose: 1.56 mg/kg/injection, schedule: Q01DX009 (ip), vehicle: saline with Tween-80
  T/C: 105 % of control
endpoint: mean survival time, dose: 1.56 mg/kg/injection, schedule: Q04DX002 (ip), vehicle: saline with Tween-80
  T/C: 92 % of control

## CC[n+]1cccc2ccccc21
endpoint: mean survival time, dose: 18.8 mg/kg/injection, schedule: Q01DX009 (ip), vehicle: saline
  T/C: 95 % of control
[1]
  T/C: 96 % of control
endpoint: mean survival time, dose: 37.5 mg/kg/injection, schedule: Q01DX009 (ip), vehicle: saline
  T/C: 96 % of control

## CC1=CC(c2ccccc2)(c2ccccc2)c2ccccc21
[2]
  T/C: 104 % of control
[3]
  T/C: 91 % of control

## Cc1nc(-c2ccccc2)[nH]c(=O)c1Cc1cc2c(cc1O)OCC2
endpoint: mean survival time, dose: 100.0 mg/kg/injection, schedule: Q01DX001 (ip), vehicle: saline
  T/C: 100 % of control
endpoint: mean survival time, dose: 200.0 mg/kg/injection, schedule: Q01DX001 (ip), vehicle: saline
  T/C: 101 % of control
endpoint: mean survival time, dose: 400.0 mg/kg/injection, schedule: Q01DX001 (ip), vehicle: saline
  T/C: 100 % of control

## Cc1[se]c2ccccc2[n+]1C
endpoint: mean survival time, dose: 75.0 mg/kg/injection, schedule: Q01DX001 (ip), vehicle: saline
  T/C: 98 % of control
endpoint: mean survival time, dose: 150.0 mg/kg/injection, schedule: Q01DX001 (ip), vehicle: saline
  T/C: 107 % of control

## CCC[CH2][Pb]([CH2]CCC)([CH2]CCC)[O]C(C)=O
endpoint: mean survival time, dose: 2.5 mg/kg/injection, schedule: Q01DX001 (ip), vehicle: other
  T/C: 96 % of control
endpoint: mean survival time, dose: 5.0 mg/kg/injection, schedule: Q01DX001 (ip), vehicle: other
  T/C: 115 % of control
endpoint: mean survival time, dose: 10.0 mg/kg/injection, schedule: Q01DX001 (ip), vehicle: other
  T/C: 93 % of control
endpoint: mean survival time, dose: 25.0 mg/kg/injection, schedule: Q04DX003 (ip), vehicle: saline with Tween-80
  T/C: 95 % of control
endpoint: mean survival time, dose: 50.0 mg/kg/injection, schedule: Q04DX003 (ip), vehicle: saline with Tween-80
  T/C: 87 % of control

## COC(=O)C1(C)CCCC2(C)C3CCC(C)(CCO)CC3C(O)CC12 (stereo not given)
endpoint: mean survival time, dose: 100.0 mg/kg/injection, schedule: Q01DX001 (ip), vehicle: saline sonified
  T/C: 102 % of control
[2]
  T/C: 96 % of control
endpoint: mean survival time, dose: 200.0 mg/kg/injection, schedule: Q01DX001 (ip), vehicle: saline sonified
  T/C: 101 % of control
[3]
  T/C: 101 % of control
endpoint: mean survival time, dose: 400.0 mg/kg/injection, schedule: Q01DX001 (ip), vehicle: saline sonified
  T/C: 93 % of control
endpoint: mean survival time, dose: 400.0 mg/kg/injection, schedule: Q01DX001 (ip), vehicle: saline with Tween-80
  T/C: 105 % of control

## O=[N+]([O-])c1ccc(/C=C2\c3ccccc3-c3nc4ccccc4nc32)cc1
endpoint: mean survival time, dose: 75.0 mg/kg/injection, schedule: Q01DX009 (ip), vehicle: saline
  T/C: 86 % of control
endpoint: mean survival time, dose: 150.0 mg/kg/injection, schedule: Q01DX009 (ip), vehicle: saline
  T/C: 88 % of control
endpoint: mean survival time, dose: 300.0 mg/kg/injection, schedule: Q01DX009 (ip), vehicle: saline
  T/C: 95 % of control

## CN1C=CC(C(C(N)=O)c2ccccc2)c2ccccc21 (stereo not given)
endpoint: mean survival time, dose: 100.0 mg/kg/injection, schedule: Q04DX003 (ip), vehicle: saline with Tween-80
  T/C: 96 % of control
endpoint: mean survival time, dose: 200.0 mg/kg/injection, schedule: Q04DX003 (ip), vehicle: saline with Tween-80
  T/C: 102 % of control
endpoint: mean survival time, dose: 400.0 mg/kg/injection, schedule: Q04DX003 (ip), vehicle: saline with Tween-80
  T/C: 97 % of control
